This is an account of results in PubChem BioAssay AID1996.

Converted amounts (≈) assume the structure as drawn.

The conditions of this data set: buffer; pH 7.4; 200.0 µM.
What is called kinetic solubility is solubility judged after dilution from a stock solution rather than from solid. For `CCOc1ccc(Br)cc1S(=O)(=O)Nc1cccc(S(=O)(=O)Nc2ccccc2C(=O)O)c1`, the solubility (kinetic) was greater than 83.3 µg/mL.

With `CCOC(=O)N1CCN(C(c2cccnc2)c2ccc3cccnc3c2O)CC1` (stereo unspecified), the solubility (kinetic) was found to be 28 µg/mL (≈ 71.3 µM). Regarding `COc1cccc(C(=O)NCc2ccc3c(c2)OCO3)c1`, the solubility (kinetic) came to 37 µg/mL (≈ 130 µM).

Consider `COc1cc(/C=N/c2oc(C)c(C)c2C#N)cc(Br)c1O`, for which the solubility (kinetic) was 8 µg/mL (≈ 22.9 µM). Compared with the last molecule, the solubility kinetic is about 4.6-fold lower. In the case of `COc1cccc(NS(=O)(=O)c2ccc3c(c2)CCN3C(C)=O)c1`, the kinetic solubility is 3.3 µg/mL (≈ 9.53 µM). As for `COC(=O)c1cc(Br)c(N)cc1OC`, the kinetic solubility was greater than 39 µg/mL.

For the molecule `FC(F)(F)c1cccnc1Oc1ccc(C2=NCCS2)cc1`, the kinetic solubility came to 0.6 µg/mL (≈ 1.85 µM). Consider `COc1ccc(N=C(C)c2sc3ccccc3c2O)cc1`, for which the solubility (kinetic) is less than 0.6 µg/mL. As to `CCn1c(SCC(=O)NC2CCCC2)nnc1-c1ccco1`, the kinetic solubility was greater than 48.1 µg/mL.

As for `CCN1CCN(c2cc(C)nc(-c3ccccc3O)n2)CC1`, the solubility (kinetic) was greater than 44.8 µg/mL. As to `CC(C)(C)c1ccc(-c2nc(C#N)c(NCCCn3ccnc3)o2)cc1`, the kinetic solubility amounted to 1.2 µg/mL (≈ 3.43 µM). Consider `CC1CCCCC1NC(=O)CCCN1C(=O)c2ccccc2C1=O` (stereo unspecified), for which the solubility (kinetic) is 15.9 µg/mL (≈ 48.4 µM). Compared with the last molecule, the solubility kinetic is about 13-fold higher.

`CC(=O)Nc1ccc(C(=O)Nc2ccc3c(c2)OCCO3)cc1` gave a solubility (kinetic) of 22.8 µg/mL (≈ 73 µM).

`Cc1ccc2oc(C(=O)N3CCN(CCO)CC3)c(C)c2c1` had a kinetic solubility greater than 45.4 µg/mL. As to `CC(=O)Nc1ccc(NC(=O)C(c2ccccc2)c2ccccc2)cc1`, the solubility (kinetic) was found to be 0.8 µg/mL (≈ 2.32 µM).

With `Clc1ccccc1C1CC(c2ccccc2)=Nc2ccccc2N1` (stereo unspecified), the solubility (kinetic) turned out to be 1.2 µg/mL (≈ 3.61 µM). For the molecule `Cc1ccc(C(=O)N/C(=C\c2ccc(C)o2)C(=O)O)cc1`, the solubility (kinetic) was greater than 42.8 µg/mL. Then `Cc1ccnc(SCC(=O)c2cc3ccccc3o2)n1`, with 1.3 µg/mL (≈ 4.57 µM); and `CN(C)c1ccc2nsnc2c1[N+](=O)[O-]`, with 33.4 µg/mL (≈ 149 µM). Then `CSCC[C@H](NC(=O)NC1CCCC1)C(=O)O`, with greater than 39.1 µg/mL; and `Cl.O=C(COc1ccc(Cl)cc1)NCCN1CCCC1`, with greater than 47.9 µg/mL; and `Cn1c(=O)n(C)c2cc(S(=O)(=O)N3CCN(c4ccccc4)CC3)ccc21`, with 0.3 µg/mL (≈ 0.776 µM). The molecule `COc1ccc(OCCNC(=O)c2ccc(C)cc2)cc1` gave a kinetic solubility of 36.8 µg/mL (≈ 129 µM). Turning to `CN(CCc1ccccn1)Cc1ccc(Cl)c(Cl)c1`, the solubility (kinetic) stood at 29.2 µg/mL (≈ 98.9 µM).

Take `Cc1ccc(N2CC(O)Cn3c2nc2c3c(=O)[nH]c(=O)n2C)cc1` (stereo unspecified): the solubility (kinetic) came to 16.2 µg/mL (≈ 49.5 µM). Against the preceding molecule, the solubility kinetic is about 1.8-fold lower.

In turn, `O=C(Nc1ccccc1)NC1CCN(Cc2c(F)cccc2Cl)CC1` returned a solubility (kinetic) of 6.8 µg/mL (≈ 18.8 µM). On to `O=C(NN1CCOCC1)c1ccc(Br)cc1`, for which the kinetic solubility was greater than 42.8 µg/mL. The molecule `CCCCc1nc2cc(Cl)ccc2o1` had a solubility (kinetic) of less than 0.4 µg/mL. In turn, `Cc1cccc(NC(=S)NCCc2ccccc2)c1C` gave a kinetic solubility of 4.1 µg/mL (≈ 14.4 µM). Regarding `Cc1ccc(NC(=O)Nc2ccc(F)cc2F)c(OC(F)F)c1`, the solubility (kinetic) is less than 0.4 µg/mL.

On to `CCNC(=O)COC(=O)c1cc(-c2ccccc2)nn1-c1ccccc1`, for which the kinetic solubility is greater than 52.4 µg/mL.

`C=CCNc1nnc(Sc2ncccc2[N+](=O)[O-])s1` had a kinetic solubility greater than 44.3 µg/mL.

`NC(=O)CSc1nnc(-c2ccco2)n1-c1ccccc1` came in with a solubility (kinetic) greater than 45.1 µg/mL. Molecule `O=C(Nc1cccc(F)c1)c1c(O)c2ccccc2[nH]c1=O` came in with a solubility (kinetic) of less than 0.3 µg/mL.

`COc1cc(OC)cc(C(=O)NCCCCNC(=O)c2cc(OC)cc(OC)c2)c1`: the kinetic solubility came out at 1.1 µg/mL (≈ 2.64 µM). Then `O=C(Cc1cccs1)NCc1cc(Cl)cc(Cl)c1`, with 34.3 µg/mL (≈ 114 µM); and `COc1cc2c(cc1OC)CN(Cc1ccc(C)cc1)CC2`, with 35.1 µg/mL (≈ 118 µM). Regarding `CN(C)S(=O)(=O)c1cccc(NC(=O)c2ccc(N3CCCC3=O)cc2)c1`, the solubility (kinetic) stood at 5.7 µg/mL (≈ 14.7 µM). Compared with the last molecule, the solubility kinetic is about 6.2-fold lower. Turning to `O=S(=O)(Nc1nc2ccc(Cl)cc2s1)c1cccs1`, the solubility (kinetic) was 12.2 µg/mL (≈ 36.9 µM). Turning to `COc1cccc(NC(=O)c2c([N+](=O)[O-])cnn2C)c1`, the solubility (kinetic) was greater than 41.4 µg/mL. Then `CN(C)S(=O)(=O)c1ccc(NC(=S)NC(=O)C2CCC2)cc1`, with 12.5 µg/mL (≈ 36.6 µM). Molecule `CC(NC(=O)c1ccc(F)cc1)C(=O)NC1=NCCS1` (stereo unspecified) had a solubility (kinetic) greater than 44.3 µg/mL.

As to `COc1ccc(CN2CSC(=S)N(Cc3ccc(OC)cc3)C2)cc1`, the solubility (kinetic) worked out at 0.8 µg/mL (≈ 2.14 µM). `COc1ccccc1NC(=O)CCSc1nc(C)cc(C)n1` showed a kinetic solubility of 38.4 µg/mL (≈ 121 µM). Compared with the last molecule, the solubility kinetic is about 48-fold higher.

For `C=CCn1c(C(C)C)nc2ccccc21.Cl`, the kinetic solubility is greater than 35.5 µg/mL.

In turn, `COC(=O)C1=CNC=C(C(=O)OC)C1c1cccc2ccccc12` returned a kinetic solubility of 2.6 µg/mL (≈ 8.04 µM). `Cn1ccnc1SCC(=O)Nc1ccc2c(c1)OCCO2` came in with a kinetic solubility greater than 45.8 µg/mL. The molecule `C=CCOC(=O)Cn1cnc2c(sc3nc(C)cc(C)c32)c1=O` gave a kinetic solubility of 3.2 µg/mL (≈ 9.72 µM). Turning to `O=C(CCCC(=O)c1ccccc1)Nc1ccc(F)cc1`, the kinetic solubility came to 4.9 µg/mL (≈ 17.2 µM). This solubility kinetic lies about 1.5-fold higher than the previous one. In turn, `CC(C)(C)c1ccc(C(=O)/C(C#N)=C/c2cccs2)cc1` gave a kinetic solubility of 4.1 µg/mL (≈ 13.9 µM). Under `O=C(c1ccco1)N1CCN(S(=O)(=O)c2cccc(Cl)c2)CC1` stands greater than 53.2 µg/mL.
